In this assay the test system is Amaranthus palmeri (AMAPA). The experiment in a line: Post-emergence greenhouse percent control of Amaranthus palmeri. In kind it is in vivo. Conditions: herbicide alone; for Observed control 7DAA: 7 days after application; for Observed control 14DAA: 14 days after application; for Observed control 21DAA: 21 days after application. How it is done: Seeds of Amaranthus palmeri (AMAPA) were sown in vero beach potting soil and grown in a greenhouse. The herbicides, alone and in combination, were applied post-emergence when the weeds were 3 to 4-inches along with adjuvants 2.5% v/v AMSOL® and 1% v/v AgriDex® using a spray TT110015 nozzle providing 15 gallons/acre. Percent control evaluations were performed at 7, 14, and 21 days after application.
Expected action was calculated by the Colby formula.

The values below come from patent US12096772B2, “Herbicidal compositions” (SYNGENTA CROP PROTECTION AG, priority 2022, dated 2024).

On to `O=c1cc(Cl)[nH]nc1-c1ccccc1` [Pyridafol, pyridafol], for which the “Observed control 7DAA” value by setting is: (2.5 g ai/ha) 0%; (5 g ai/ha) 0%; (10 g ai/ha) 0%; (27 g ai/ha) 5%; (57 g ai/ha) 17%; (87 g ai/ha) 23%. For the same compound, the “Observed control 7DAA” value (117 g ai/ha) came out at 23%. Further, the “Observed control 14DAA” value is, setting by setting: (2.5 g ai/ha) 0%; (5 g ai/ha) 0%; (10 g ai/ha) 0%; (27 g ai/ha) 2%; (57 g ai/ha) 10%; (87 g ai/ha) 15%. Also, where the note is “117 g ai/ha”, the “Observed control 14DAA” value worked out at 17%. Moreover, the “Observed control 21DAA” value was 0% (2.5 g ai/ha); 0% (5 g ai/ha); 0% (10 g ai/ha); 0% (27 g ai/ha); 3% (57 g ai/ha); 13% (87 g ai/ha). In addition, the “Observed control 21DAA” value (117 g ai/ha) is 7%.

Turning to bicyclopyrone, for the setting “10 g ai/ha”, the “Observed control 7DAA” value is 72%, the “Observed control 14DAA” value stood at 60% and the “Observed control 21DAA” value is recorded as 57%.

`CS(=O)(=O)c1ccc(C(=O)C2C(=O)CCCC2=O)c([N+](=O)[O-])c1` [Mesotrione, mesotrione]: under “10 g ai/ha”, the “Observed control 7DAA” value stood at 75%, the “Observed control 14DAA” value is listed as 63% and the “Observed control 21DAA” value is 62%.
